{"source": "patent US20260125514A1", "about": "“CROSSLINKED POLYMERS AND THEIR USES” (UNIVERSITÉ CÔTE D'AZUR, priority 2022, published 2026)", "origin": "cited, not measured here", "conditions": "free, non crosslinked caulerpenyne; Parent-Massin (1996)", "data": [{"smiles": "CC(=O)O/C=C(/C=C/OC(C)=O)[C@H](C/C=C(\\C)C#CC=C(C)C)OC(C)=O", "note": "[caulerpenyne, Caulerpenyne]", "values": [{"measurement": "toxicity", "value": "toxicity"}]}]}
